Read-outs that look alike come from different tables or passages of the source.
Assays:
[1] = test system: HT-29, ZR-75 and A-549 cell lines; assay: Average anti-proliferative activity over the three cancer cell lines; format: cell-based, human; conditions: average of HT-29, ZR-75, A-549; for inhibition at 30 µM: read-out: Average Growth Inhibition %; for inhibition at 30 µM / Average Growth Inhibition %: 30 μM
Experimental: (§1) Twenty compounds, i.e. 4a-o and 7a-e, were analyzed for cancer cell growth inhibitory activity. These studies were carried out using cells derived from human lung, colon and breast tumors (A549, HT-29 and ZR-75 cells, respectively). This initial assessment of activity tested each compound in quadruplicate at a single concentration of 30 μM, if solubility permitted.
Therefore, they were subjected to quantitative inhibitory concentration 50% (IC50) determination for their cell growth inhibitory activity towards the A549, HT-29 and ZR-75 cancer cell lines.
(§2) A549, HT-29, ZR-75 were obtained from the American Type Culture Collection (ATCC). Cells were harvested from 90-95% confluent 10 cm dishes, and diluted in growth media (RPMI-1640 supplemented with 5% fetal bovine serum). An appropriate concentration of cells were prepared to add 1,250 cells in a volume of 25 µL per well in tissue culture treated Griener 384-well microplates, then incubated overnight at 37°C. Compound 7e was diluted to a concentration of 30 µM in DMSO. Concentrated dosing solutions of twice the final concentration were prepared by dilution of the DMSO stocks 1:500 in growth media. Two-fold serial dilutions were then prepared in medium containing 0.2% DMSO to maintain a constant concentration of vehicle throughout the concentration range of the compound. Each of these was added in an equal volume (25 µL) to four wells on each cell assay plate, along with the vehicle control. The highest concentration for serial dilutions of the positive control (sunitinib) was prepared exactly as the experimental compound 7e. Cells were incubated with the compounds for a further 72 h.
(§3) The potency of compounds was determined using the non-linear dose response algorithm (four-parameter logistic fit) with GraphPad Prism 5 software.

ZR-75 = assay: Anti-proliferative activity, cell growth inhibition (CellTiterGlo, 72 h); format: cell-based, human; conditions: for inhibition at 30 µM: ZR75, read-out: Cell growth inhibitory activity, ZR-75
Experimental: as §1, §2
(§4) At the end of the treatment period, assay plates were allowed to cool to RT for 10 min prior to the addition of 25 µL per well Promega CellTiterGlo reagent, followed by additional 10 min incubation at RT. The resulting luminescence was quantitated using a Molecular Devices Spectramax Paradigm.
(§5) Percent growth inhibition was calculated as follows, where 100 represents the viability of vehicle treated control samples:
as §3

HT-29 = assay: as above; format: cell-based, human; conditions: for inhibition at 30 µM: HT-29, read-out: Cell growth inhibitory activity, HT-29; for IC50: 72 h
Experimental: as §1, §2, §4, §5, §3

A549 = assay: as above; format: cell-based, human; conditions: for inhibition at 30 µM: A549, read-out: Cell growth inhibitory activity, A-549; for IC50: read-out: IC50 A-549
Experimental: as §1, §2, §4, §5, §3

NCI cell lines = test system: NCI cell lines; parameters: method as in PMID 17073710, PMID 16860559; conditions: against 46 out of 53 NCI cell lines; cited from earlier work
[2] = test system: cyclin-dependent kinases (CDKs); conditions: read-out: IC50 CDKs; binding to the ATP pocket; cited from earlier work
[3] = target: glycogen synthase kinase 3 beta (GSK-3β); conditions: read-out: IC50 GSK-3β; binding to the ATP pocket; cited from earlier work
[4] = Homo sapiens, 30 μM, quadruplicate

Compound | melting point [°C] | inhibition at 30 µM ([1]; Homo sapiens) [%] | inhibition at 30 µM (ZR-75; [4]) [%] | inhibition at 30 µM (HT-29; [4]) [%] | inhibition at 30 µM (A549; [4]) [%] | other results
COc1cc(C=NN=C2C(=O)Nc3ccccc32)ccc1O [Compound 4c, 3-((4-Hydroxy-3-methoxybenzylidene)hydrazono)indolin-2-one] | – | 61.5 | 55.4 ± 23.4 | 74.9 ± 5.3 | 54.2 ± 5 | –
COc1ccc(C=NN=C2C(=O)Nc3ccc(Cl)cc32)cc1 [Compound 4f, 5-Chloro-3-((4-methoxybenzylidene)hydrazono)indolin-2-one] | 282 to 284 | 8.4 | 10.9 ± 14 | 6.1 ± 8.6 | 8.4 ± 10 | –
COc1ccc(C=NN=C2C(=O)Nc3ccc(Cl)cc32)cc1O [Compound 4g, 5-Chloro-3-((3-hydroxy-4-methoxybenzylidene)hydrazono)indolin-2-one] | 278 to 280 | 41.2 | 46 ± 6.4 | 33.5 ± 11.3 | 44.2 ± 16.5 | –
COc1cc(C=NN=C2C(=O)Nc3ccc(Cl)cc32)ccc1O [Compound 4h, 5-Chloro-3-((4-hydroxy-3-methoxybenzylidene)hydrazono)indolin-2-one] | 269 to 271 | 36.6 | 30.9 ± 9.5 | 41.6 ± 10.4 | 37.3 ± 8.1 | –
COc1ccc(C=NN=C2C(=O)Nc3ccc(Br)cc32)cc1 [Compound 4k, 5-Bromo-3-((4-methoxybenzylidene)hydrazono)indolin-2-one] | 290 to 292 | -4.3 | -5.3 ± 18.1 | -0.6 ± 7.2 | -6.9 ± 9.4 | Average Growth Inhibition % [1]: stimulated the growth
COc1ccc(C=NN=C2C(=O)Nc3ccc(Br)cc32)cc1O [Compound 4l, 5-Bromo-3-((3-hydroxy-4-methoxybenzylidene)hydrazono)indolin-2-one] | 278 to 280 | 45.6 | 44.3 ± 18.4 | 45.9 ± 9.8 | 46.6 ± 9.5 | –
COc1cc(C=NN=C2C(=O)Nc3ccc(Br)cc32)ccc1O [Compound 4m, 5-Bromo-3-((4-hydroxy-3-methoxybenzylidene)hydrazono)indolin-2-one] | 285 to 287 | 61.5 | 58.7 ± 16 | 42.1 ± 1.8 | 83.7 ± 10.3 | –
CN1C(=O)C(=NN=C2C(=O)Nc3ccc(F)cc32)c2ccccc21 [Compound 7a, 5-Fluoro-3-((1-methyl-2-oxoindolin-3-ylidene)hydrazono)indolin-2-one] | 295 to 297 | 85 | 78.6 ± 9.9 | 84.8 ± 3.6 | 91.6 ± 4.8 | –
CN1C(=O)C(=NN=C2C(=O)Nc3ccc(Cl)cc32)c2ccccc21 [Compound 7b, 5-Chloro-3-((methyl-2-oxoindolin-3-ylidene)hydrazono)indolin-2-one] | – | – | – | – | – | Average Growth Inhibition % [1]: 95.4%; IC50 [1]: 4.77 µM; Cell growth inhibitory activity, ZR-75 (ZR-75; 30 μM, quadruplicate): 95.5 ± 6.0%; IC50 (ZR-75; 72 h): 3.75 µM; Cell growth inhibitory activity, HT-29 (HT-29; 30 μM, quadruplicate): 95.5 ± 3.4%; IC50 (HT-29): 5.38 µM; Cell growth inhibitory activity, A-549 (A549; 30 μM, quadruplicate): 95.2 ± 2.8%; IC50 (A549; 72 h): 5.19 µM
O=C1Nc2ccccc2C1=NN=C1C(=O)N(Cc2ccccc2)c2ccccc21 [Compound 7c, 1-Benzyl-3-((oxoindolin-3-ylidene)hydrazono)indolin-2-one] | 255 to 257 | 84.2 | 92.1 ± 3.8 | 73.8 ± 4.4 | 86.6 ± 9.9 | –
O=C1Nc2ccc(Cl)cc2C1=NN=C1C(=O)N(Cc2ccccc2)c2ccccc21 [Compound 7d, 1-Benzyl-3-((5-chloro-2-oxoindolin-3-ylidene)hydrazono)indolin-2-one] | 258 to 260 | 97.7 | 97.8 ± 1.8 | 97 ± 1.8 | 98.4 ± 0.6 | IC50 ([1]; Homo sapiens): 3.39 µM; IC50 (ZR-75; Homo sapiens, ZR75, 72 h): 2.42 µM; IC50 (HT-29): 3.62 µM; IC50 (HT-29; Homo sapiens, HT-29, 72 h): 3.82 µM; IC50 (A549; Homo sapiens, A549, 72 h): 4.13 µM
Cc1cc(C)c(/C=C2\C(=O)Nc3ccccc32)[nH]1 [Semaxanib] | – | – | – | – | – | GI50 (NCI cell lines): < 0.01 µM
O=C1Nc2ccccc2/C1=C1/Nc2ccccc2C1=O [indirubin, Indirubin] | – | – | – | – | – | IC50 [2]: 75 µM; IC50 [3]: […]

More lines, main results first:

melting point [°C] | Compound | inhibition at 30 µM ([1]; Homo sapiens) [%] | inhibition at 30 µM (ZR-75; [4]) [%] | inhibition at 30 µM (HT-29; [4]) [%] | inhibition at 30 µM (A549; [4]) [%] | other results
277 to 279 | COc1ccc(C=NN=C2C(=O)Nc3ccccc32)cc1 [Compound 4a, 3-((4-Methoxybenzylidene)hydrazono)indolin-2-one] | 27.2 | 34.8 ± 23.7 | 19.5 ± 12.4 | 27.1 ± 20.3 | –
273 to 275 | COc1ccc(C=NN=C2C(=O)Nc3ccccc32)cc1O [Compound 4b, 3-((3-Hydroxy-4-methoxybenzylidene)hydrazono)indolin-2-one] | 69.2 | 59.3 ± 11.1 | 81.9 ± 3 | 66.3 ± 5.7 | –
276 to 278 | COc1ccc(C=NN=C2C(=O)Nc3ccccc32)cc1OC [Compound 4d, 3-((3,4-Dimethoxybenzylidene)hydrazono)indolin-2-one] | 74.3 | 58.8 ± 4.3 | 81.7 ± 5.2 | 82.5 ± 6.9 | –
240 to 241 | COc1cc(C=NN=C2C(=O)Nc3ccccc32)cc(OC)c1OC [Compound 4e, 3-((3,4,5-Trimethoxybenzylidene)hydrazono)indolin-2-one] | 87.2 | 86.1 ± 3.8 | 81.9 ± 5.4 | 93.6 ± 3.6 | –
282 to 284 | COc1ccc(C=NN=C2C(=O)Nc3ccc(Cl)cc32)cc1OC [Compound 4i, 5-Chloro-3-((3,4-dimethoxybenzylidene)hydrazono)indolin-2-one] | 11.4 | 33 ± 13 | -3.6 ± 9.7 | 4.9 ± 3.3 | –
245 to 247 | COc1cc(C=NN=C2C(=O)Nc3ccc(Cl)cc32)cc(OC)c1OC [Compound 4j, 5-Chloro-3-((3,4,5-trimethoxybenzylidene)hydrazono)indolin-2-one] | 8.9 | 18.1 ± 21.2 | 6.9 ± 4.2 | 1.7 ± 17.5 | –
280 to 282 | COc1ccc(C=NN=C2C(=O)Nc3ccc(Br)cc32)cc1OC [Compound 4n, 5-Bromo-3-((3,4-dimethoxybenzylidene)hydrazono)indolin-2-one] | 3.5 | 12.5 ± 21.9 | -2 ± 10.2 | 0.1 ± 5.1 | –
261 to 263 | COc1cc(C=NN=C2C(=O)Nc3ccc(Br)cc32)cc(OC)c1OC [Compound 4o, 5-Bromo-3-((3,4,5-trimethoxybenzylidene)hydrazono)indolin-2-one] | -0.5 | 3.1 ± 8.2 | -1.1 ± 9 | -3.4 ± 6.6 | Average Growth Inhibition % [1]: stimulated the growth

Source: paper PMC5526551, “New hydrazonoindolin-2-ones: Synthesis, exploration of the possible anti-proliferative mechanism of action and encapsulation into PLGA microspheres” (PLoS ONE, 2017)
